Molecules are shown by their SMILES. Counter-ions that a name gives are not always drawn. Like-named read-outs stand apart in the source and are kept apart here.

One assay addresses FGFR2 (h) (Homo sapiens, UniProt P21802). Kind of assay: FGFR2 (enzymatic assay), TR-FRET. The class given is biochemical. The settings on record: enzymatic assay, read-out: FGFR 2 pIC50 (converted). In short, it runs like this: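 At low ATP (0.4 μM), enzyme activity of human FGFR2 (150 ng/ml) toward biotinylated Flt3 substrate (500 nM) was followed with test compound present. Reactions ran in 50 mM HEPES pH 7.5, 6 mM MnCl2, 1 mM DTT, 0.1 mM Na3VO4, 0.01% Triton-X-100, 1% DMSO.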
(In general: Time-resolved FRET reads energy transfer from a long-lived donor to a nearby acceptor.)

For another assay, the target named is FGFR4 (h) (Homo sapiens, UniProt P22455). Kind of assay: FGFR4 (enzymatic assay), TR-FRET. The class given is biochemical. The settings on record: FGFR 4 pIC50, enzymatic assay.
FGFR4 (h), sequence (P22455 22-802): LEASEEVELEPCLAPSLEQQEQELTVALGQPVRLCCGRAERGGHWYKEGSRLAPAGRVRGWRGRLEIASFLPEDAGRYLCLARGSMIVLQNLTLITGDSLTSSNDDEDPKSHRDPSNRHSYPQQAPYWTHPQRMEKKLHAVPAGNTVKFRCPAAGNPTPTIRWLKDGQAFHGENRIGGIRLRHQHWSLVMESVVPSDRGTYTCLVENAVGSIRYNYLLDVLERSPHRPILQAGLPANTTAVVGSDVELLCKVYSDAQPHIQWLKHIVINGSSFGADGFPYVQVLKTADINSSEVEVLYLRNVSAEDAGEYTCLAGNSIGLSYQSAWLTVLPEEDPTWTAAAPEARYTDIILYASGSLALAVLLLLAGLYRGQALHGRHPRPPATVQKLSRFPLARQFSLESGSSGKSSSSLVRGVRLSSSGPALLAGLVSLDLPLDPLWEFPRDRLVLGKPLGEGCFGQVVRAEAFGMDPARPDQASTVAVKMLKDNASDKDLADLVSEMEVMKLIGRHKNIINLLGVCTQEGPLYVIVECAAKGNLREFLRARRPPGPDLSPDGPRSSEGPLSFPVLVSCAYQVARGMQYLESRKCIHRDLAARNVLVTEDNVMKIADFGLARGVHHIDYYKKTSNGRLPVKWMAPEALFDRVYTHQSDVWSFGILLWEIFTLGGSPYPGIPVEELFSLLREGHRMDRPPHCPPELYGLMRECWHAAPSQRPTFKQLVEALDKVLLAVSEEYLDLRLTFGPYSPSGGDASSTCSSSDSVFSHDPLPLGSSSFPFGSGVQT
In assay [1] the target is T1, Ba/F3-FGFR1-transfected cells (Homo sapiens, UniProt P11362).
T1 construct: BAF3-FGFR1 (MIN IL3) pIC50; other: minus IL3
T1 sequence (P11362 whole entry, change not shown): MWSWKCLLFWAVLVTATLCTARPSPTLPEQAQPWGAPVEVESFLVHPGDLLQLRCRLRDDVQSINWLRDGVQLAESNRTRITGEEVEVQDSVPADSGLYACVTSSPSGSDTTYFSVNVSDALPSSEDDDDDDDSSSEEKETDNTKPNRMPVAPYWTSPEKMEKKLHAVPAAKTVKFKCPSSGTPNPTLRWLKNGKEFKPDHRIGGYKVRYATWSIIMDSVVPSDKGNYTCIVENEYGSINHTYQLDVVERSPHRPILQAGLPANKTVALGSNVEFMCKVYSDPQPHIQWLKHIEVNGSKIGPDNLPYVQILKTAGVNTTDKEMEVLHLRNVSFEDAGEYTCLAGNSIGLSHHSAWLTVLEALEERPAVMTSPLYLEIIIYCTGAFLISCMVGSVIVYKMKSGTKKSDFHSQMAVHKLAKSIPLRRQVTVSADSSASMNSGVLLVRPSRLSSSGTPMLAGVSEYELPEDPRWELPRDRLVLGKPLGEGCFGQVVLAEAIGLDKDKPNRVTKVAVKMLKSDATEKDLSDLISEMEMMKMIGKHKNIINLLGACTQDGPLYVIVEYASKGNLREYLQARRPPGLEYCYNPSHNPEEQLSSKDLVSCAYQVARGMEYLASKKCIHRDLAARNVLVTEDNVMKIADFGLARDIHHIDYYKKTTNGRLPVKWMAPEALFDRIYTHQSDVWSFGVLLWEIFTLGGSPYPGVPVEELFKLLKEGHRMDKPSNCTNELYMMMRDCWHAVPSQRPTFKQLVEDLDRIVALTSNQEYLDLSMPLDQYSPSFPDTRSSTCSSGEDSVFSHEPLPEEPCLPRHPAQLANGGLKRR
Kind of assay: Ba/F3-FGFR1 (minus IL3) cellular proliferation assay, Alamar Blue. It counts as cell-based. In short, it runs like this: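 Viability of transfected Ba/F3-FGFR1 cells (20000 per well, RPMI-1640 with 10% FBS and 2 mM L-glutamine) was scored by resazurin-based Alamar Blue reduction over 4 h, after 24 h treatment with compound at 37 °C under 5% CO2.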
Background: The colour change of resazurin is a common sign of viable cells or microbes.

The target of assay [2] is T2, Ba/F3-FGFR3-transfected cells (Homo sapiens, UniProt P22607).
T2 construct: BAF3-FGFR3 (MIN IL3) pIC50; other: minus IL3
T2 sequence (P22607 whole entry, change not shown): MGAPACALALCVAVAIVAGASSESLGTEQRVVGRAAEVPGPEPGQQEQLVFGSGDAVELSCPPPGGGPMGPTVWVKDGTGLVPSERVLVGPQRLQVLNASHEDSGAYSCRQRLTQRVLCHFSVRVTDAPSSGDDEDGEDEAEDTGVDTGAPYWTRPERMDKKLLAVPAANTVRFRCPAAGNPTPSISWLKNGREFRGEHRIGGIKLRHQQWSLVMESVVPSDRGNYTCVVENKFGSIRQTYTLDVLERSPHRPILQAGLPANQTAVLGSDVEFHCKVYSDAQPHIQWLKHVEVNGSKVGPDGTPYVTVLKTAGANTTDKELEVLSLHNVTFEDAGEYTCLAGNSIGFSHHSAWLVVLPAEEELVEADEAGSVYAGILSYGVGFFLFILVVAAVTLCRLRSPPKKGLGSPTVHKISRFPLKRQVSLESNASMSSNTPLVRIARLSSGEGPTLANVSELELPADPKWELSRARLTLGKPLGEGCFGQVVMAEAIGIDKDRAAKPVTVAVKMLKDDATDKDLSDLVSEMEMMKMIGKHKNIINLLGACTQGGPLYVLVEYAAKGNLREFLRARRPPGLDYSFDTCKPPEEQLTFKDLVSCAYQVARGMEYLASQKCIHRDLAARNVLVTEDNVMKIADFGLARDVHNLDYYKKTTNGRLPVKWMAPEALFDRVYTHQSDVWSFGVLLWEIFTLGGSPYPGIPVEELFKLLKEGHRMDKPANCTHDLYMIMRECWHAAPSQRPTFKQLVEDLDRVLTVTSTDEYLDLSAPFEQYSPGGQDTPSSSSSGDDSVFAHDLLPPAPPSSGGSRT
Kind of assay: Ba/F3-FGFR3 (minus IL3) cellular proliferation assay, Alamar Blue. It counts as cell-based. The essentials: (§1)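 With or without 10 ng/ml murine IL3, FGFR3-dependent Ba/F3 cells were treated 24 h with compound, then viability was gauged by Alamar Blue fluorescence after 4 h (ex 540/em 590 nm).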

The test system of assay [3] is Ba/F3-FGFR3-transfected cells. In words: Ba/F3-FGFR3 (plus IL3) cellular proliferation assay, counterscreen with 10 ng/ml murine IL3. It counts as cell-based. As to conditions: read-out: BAF3-FGFR3 (PLUS IL3) pIC50 (converted). The essentials:
as §1

In assay [4] the target is T3, Ba/F3-KDR-transfected cells (Homo sapiens, UniProt P35968).
T3 construct: BAF3-KDR (MIN IL3) pIC50; other: minus IL3
T3 sequence (P35968 whole entry, change not shown): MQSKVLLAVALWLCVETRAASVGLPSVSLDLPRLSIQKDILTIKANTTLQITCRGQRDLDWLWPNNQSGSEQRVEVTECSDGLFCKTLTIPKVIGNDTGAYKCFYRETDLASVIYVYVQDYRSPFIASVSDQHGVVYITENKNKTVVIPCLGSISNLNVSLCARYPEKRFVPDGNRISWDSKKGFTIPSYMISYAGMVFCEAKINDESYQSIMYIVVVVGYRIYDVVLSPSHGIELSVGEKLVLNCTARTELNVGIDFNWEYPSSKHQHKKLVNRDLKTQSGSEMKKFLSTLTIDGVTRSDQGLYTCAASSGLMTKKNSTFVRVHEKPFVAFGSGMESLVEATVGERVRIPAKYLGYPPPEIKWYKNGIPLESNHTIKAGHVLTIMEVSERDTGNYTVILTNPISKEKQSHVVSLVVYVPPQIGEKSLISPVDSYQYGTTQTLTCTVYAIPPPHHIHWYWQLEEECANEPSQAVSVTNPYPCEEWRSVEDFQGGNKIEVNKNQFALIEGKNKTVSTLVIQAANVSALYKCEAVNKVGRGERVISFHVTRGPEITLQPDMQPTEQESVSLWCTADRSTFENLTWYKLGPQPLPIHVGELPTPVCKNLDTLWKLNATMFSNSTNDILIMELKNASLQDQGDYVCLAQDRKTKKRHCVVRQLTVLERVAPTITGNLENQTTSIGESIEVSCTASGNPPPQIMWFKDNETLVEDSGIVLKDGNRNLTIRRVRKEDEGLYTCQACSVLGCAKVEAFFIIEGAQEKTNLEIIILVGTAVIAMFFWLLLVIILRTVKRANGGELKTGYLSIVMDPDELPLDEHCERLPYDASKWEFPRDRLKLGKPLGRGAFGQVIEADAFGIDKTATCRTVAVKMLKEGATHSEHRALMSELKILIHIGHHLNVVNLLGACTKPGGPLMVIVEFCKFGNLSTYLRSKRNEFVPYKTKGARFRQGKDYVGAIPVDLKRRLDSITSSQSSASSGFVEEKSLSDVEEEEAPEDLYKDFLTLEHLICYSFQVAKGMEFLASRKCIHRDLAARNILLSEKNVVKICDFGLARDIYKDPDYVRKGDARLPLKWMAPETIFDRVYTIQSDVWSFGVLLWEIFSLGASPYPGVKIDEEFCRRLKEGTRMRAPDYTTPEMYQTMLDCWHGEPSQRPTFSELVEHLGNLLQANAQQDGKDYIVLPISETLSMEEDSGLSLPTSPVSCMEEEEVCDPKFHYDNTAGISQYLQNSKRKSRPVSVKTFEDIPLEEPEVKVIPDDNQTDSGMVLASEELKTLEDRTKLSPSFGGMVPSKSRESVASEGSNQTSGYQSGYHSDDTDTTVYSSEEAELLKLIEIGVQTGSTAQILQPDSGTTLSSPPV
In words: Ba/F3-KDR (minus IL3) cellular proliferation assay, Alamar Blue. It counts as cell-based. In short, it runs like this: (§2)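 Cells grown with test compound at 37° C and 5% CO2 for 24 hours were given a resazurin/ferricyanide/ferrocyanide reagent for 4 hours before fluorescence (540/590 nm) was recorded.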

Assay [5] relates to Ba/F3-KDR-transfected cells. Kind of assay: Ba/F3-KDR (plus IL3) cellular proliferation assay, counterscreen with 10 ng/ml murine IL3. As to conditions: read-out: BAF3-KDR (PLUS IL3) pIC50 (converted). The class given is cell-based. In short, it runs like this: as §2
Setting [6] is: average values if tested multiple times.
[7] abbreviates: plus IL3 (10 ng/ml murine IL3, counterscreen).

FGFR2 (h), sequence (P21802 22-821): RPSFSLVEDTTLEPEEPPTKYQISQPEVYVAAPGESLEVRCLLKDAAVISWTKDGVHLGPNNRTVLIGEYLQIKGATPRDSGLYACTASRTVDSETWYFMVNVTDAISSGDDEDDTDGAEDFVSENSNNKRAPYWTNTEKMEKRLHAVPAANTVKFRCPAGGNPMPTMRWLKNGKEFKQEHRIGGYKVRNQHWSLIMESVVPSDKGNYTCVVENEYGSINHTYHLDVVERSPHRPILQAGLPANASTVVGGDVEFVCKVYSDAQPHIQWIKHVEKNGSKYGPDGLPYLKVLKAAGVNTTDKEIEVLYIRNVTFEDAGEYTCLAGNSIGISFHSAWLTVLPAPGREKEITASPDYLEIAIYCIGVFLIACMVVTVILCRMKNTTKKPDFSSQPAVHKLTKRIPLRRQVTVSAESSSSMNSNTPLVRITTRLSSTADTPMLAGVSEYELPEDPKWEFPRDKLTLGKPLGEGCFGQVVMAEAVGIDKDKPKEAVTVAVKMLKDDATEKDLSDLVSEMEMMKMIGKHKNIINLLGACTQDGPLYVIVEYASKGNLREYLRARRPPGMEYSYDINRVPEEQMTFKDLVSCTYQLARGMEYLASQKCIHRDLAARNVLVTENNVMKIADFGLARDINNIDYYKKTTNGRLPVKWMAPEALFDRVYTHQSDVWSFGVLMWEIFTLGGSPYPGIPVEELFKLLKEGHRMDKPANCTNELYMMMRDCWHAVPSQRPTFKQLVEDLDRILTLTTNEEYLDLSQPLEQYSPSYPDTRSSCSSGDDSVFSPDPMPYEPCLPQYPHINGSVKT

As to `COc1cc(OC)cc(N(CC(O)C(F)(F)F)c2ccc3ncc(-c4cnn(C)c4)nc3n2)c1` (single isomer, unassigned) [Compound 33], the IC50 is 2.04 nM on FGFR2 (h) (setting [6]), 1.41 nM against FGFR4 (h) (setting [6]), above 10000 nM in assay [3] (setting [7]) and above 10000 nM in assay [5] (setting [7]). Besides, in assay [1], the “BAF3-FGFR1 (MIN IL3) pIC50” value was found to be 7.60. The “BAF3-FGFR3 (MIN IL3) pIC50” value in assay [2] is recorded as around 7.64. Besides, the “BAF3-KDR (MIN IL3) pIC50” value in assay [4] is recorded as 5.26.
In the case of `COc1cc(OC)c(F)c(N(Cc2ncccn2)c2ccc3ncc(-c4cnn(C)c4)nc3n2)c1` [Compound 9], the IC50 on FGFR2 (h) (setting [6]) was 12.6 nM; at FGFR4 (h) (setting [6]), 25.1 nM; in assay [3] it was above 10000 nM; in assay [5] it was above 10000 nM. In addition, the “BAF3-FGFR1 (MIN IL3) pIC50” value in assay [1] is given as 7.4. Moreover, the “BAF3-FGFR3 (MIN IL3) pIC50” value in assay [2] was around 7.2. Also, the “BAF3-KDR (MIN IL3) pIC50” value in assay [4] is given as 5.95.
On to `COc1cc(OC)cc(N(Cc2ncc[nH]2)c2ccc3ncc(-c4cnn(C)c4)nc3n2)c1` (racemic) [24-DL-tartrate salt], for which the IC50 was 1.32 nM on FGFR2 (h) (setting [6]), 1.12 nM against FGFR4 (h) (setting [6]), above 10000 nM in assay [3] (setting [7]) and above 10000 nM in assay [5] (setting [7]). Further, the “BAF3-FGFR1 (MIN IL3) pIC50” value in assay [1] is recorded as 8.47. Besides, in assay [2], the “BAF3-FGFR3 (MIN IL3) pIC50” value is 8.21. Further, the “BAF3-KDR (MIN IL3) pIC50” value in assay [4] amounted to 6.30.
Consider `COc1cc(O)cc(N(Cc2ncc[nH]2)c2ccc3ncc(-c4cnn(C)c4)nc3n2)c1` [Compound 103], for which the IC50 was 0.741 nM at FGFR2 (h) (setting [6]), 0.741 nM at FGFR4 (h) (setting [6]), above 10000 nM in assay [3] (setting [7]) and above 10000 nM in assay [5] (setting [7]). For the same molecule, the “BAF3-FGFR1 (MIN IL3) pIC50” value in assay [1] amounted to 8.31. In assay [2], the “BAF3-FGFR3 (MIN IL3) pIC50” value is recorded as around 8.00. Further, in assay [4], the “BAF3-KDR (MIN IL3) pIC50” value was 6.40.
`COc1cc(OC)c(F)c(N(CCCN2CCCC2=O)c2ccc3ncc(-c4cnn(C)c4)nc3n2)c1` [Compound 120]: the IC50 at FGFR2 (h) is 3.02 nM; at FGFR4 (h), 3.24 nM; in assay [3] (setting [7]) it was above 10000 nM; in assay [5] (setting [7]), above 10000 nM. In addition, the “BAF3-FGFR1 (MIN IL3) pIC50” value in assay [1] worked out at 7.27. In addition, in assay [2], the “BAF3-FGFR3 (MIN IL3) pIC50” value turned out to be 7.16. For the same molecule, the “BAF3-KDR (MIN IL3) pIC50” value in assay [4] is listed as 6.10.
